The results in this text go back to PMC9226124, “Macrocycle-stabilization of its interaction with 14-3-3 increases plasma membrane localization and activity of CFTR” (Nature Communications, 2022).

For assay [1], the target named is T1, 14-3-3β/CFTRpS753pS768 complex (Homo sapiens, UniProt P13569+P31946).
T1 construct: His6 (cleaved yes); made in house; peptide synthetic
The assay is described as follows: Dose-response fluorescence polarization (FP) assay, compound titration. As to conditions: 14-3-3 10 μM, peptide 100 nM, replicates. The class given is binding. Here is the method: The 14-3-3β concentration used for the FP screening assay was 10 μM (dashed line). c HTS FP assay of the Cyclenium library. The samples contain 100 nM of FITC-CFTR_pS753pS768 peptide, 10 μM 14-3-3β, and 50 μM compound. FC-A (100 µM) was added as a positive control and DMSO as the negative control. Hit compounds are defined as a polarization increase which is higher than 20% of the response of FC-A. Red squares are compounds that appeared positive in the negative control without 14-3-3. […] Background polarization was subtracted from all values, n = 3 technical replicates. Compounds selected for further analysis are indicated with an asterisk. e Polarization in the absence of 14-3-3. […] Source data are provided as a Source Data file. […]
(§1) The FITC-labeled peptides were dissolved in FP buffer (10 mM HEPES pH 7.4, 150 mM NaCl, 0.1% Tween20, 1 mg/mL BSA) to a final concentration of 100 nM or 10 nM. For the dose-response assays, a 14-3-3β concentration of 10 μM was used while titrating the compounds in a two-times dilution series and, for the other assays, a dilution series of 14-3-3β was made with constant concentration of compound. The dilution series were made in 384 Corning Black Round Bottom well plates and their polarization was measured with a Tecan Infinite F500 plate reader (ex. = 485 nm, em. = 535 nm). The method of fitting of the curves was: “log(agonist) vs. response – Variable slope (four parameters)” from GraphPad Prism. The equation is Y = Bottom + (Top-Bottom)/(1 + 10^((LogEC50-X)*HillSlope)).

Assay [2] has as its target T2, FITC-labeled CFTRpS753pS768 peptide (no 14-3-3) (Homo sapiens, UniProt P13569).
T2 construct: made in house; host or cells: synthetic peptide
The assay is described as follows: Dose-response FP control assay in the absence of 14-3-3. The class given is binding. To be noted: replicates. Here is the method: The 14-3-3β concentration used for the FP screening assay was 10 μM (dashed line). c HTS FP assay of the Cyclenium library. The samples contain 100 nM of FITC-CFTR_pS753pS768 peptide, 10 μM 14-3-3β, and 50 μM compound. FC-A (100 µM) was added as a positive control and DMSO as the negative control. Hit compounds are defined as a polarization increase which is higher than 20% of the response of FC-A. Red squares are compounds that appeared positive in the negative control without 14-3-3. […] Background polarization was subtracted from all values, n = 3 technical replicates. Compounds selected for further analysis are indicated with an asterisk. e Polarization in the absence of 14-3-3. […] Source data are provided as a Source Data file.
as §1

Several values for one entry are separate records, joined by “and”; a condition that tells them apart may be missing. Equal entries are not always repeated.

T1 sequence (P31946 whole entry): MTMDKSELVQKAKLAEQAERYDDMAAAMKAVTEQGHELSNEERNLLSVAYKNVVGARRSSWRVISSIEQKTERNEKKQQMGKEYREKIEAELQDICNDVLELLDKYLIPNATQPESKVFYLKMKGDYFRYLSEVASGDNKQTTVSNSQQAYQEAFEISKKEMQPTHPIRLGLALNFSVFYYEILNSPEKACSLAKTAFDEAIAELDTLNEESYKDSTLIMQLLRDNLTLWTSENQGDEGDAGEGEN
T1 sequence (P13569 747-774 limits assumed): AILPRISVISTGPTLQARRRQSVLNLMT

Turning to `NCCCC1NCc2ccccc2Sc2ccccc2CNC(=O)C(Cc2c[nH]c3ccccc23)NC(=O)C(Cc2ccccc2)NC1=O` (stereo not drawn) [CY000970], the “Polarization, background subtracted” value in assay [1] (compound 7.8125e-7 M) is 3.967 and 7.467 and 1.967; in assay [1] (compound 1.5625e-6 M) it was 3.067 and 3.467 and 2.467; in assay [1] (compound 3.125e-6 M), 6.467 and 6.067 and 3.767; in assay [1] (compound 6.25e-6 M), 9.367 and 10.5667 and 10.2667; in assay [1] (compound 1.25e-5 M), 21.1667 and 31.0667 and 29.9667; in assay [1] (compound 2.5e-5 M), 47.8667 and 51.0667 and 48.4667. Also, the “Polarization, background subtracted” value in assay [1] (compound 5e-5 M) is 75.6667 and 90.6667 and 83.6667; in assay [1] (compound 0.0001 M), 125.667 and 143.267 and 127.367. The “Polarization in the absence of 14-3-3, background subtracted” value (“Polarization in the absence” for short) was 1.267 and 1.067 and 0.9667 in assay [2] (compound 7.8125e-7 M); 0.5667 and 0.1667 and -0.03333 in assay [2] (compound 1.5625e-6 M); 1.367 and 2.667 and 1.467 in assay [2] (compound 3.125e-6 M); 1.367 and 2.167 and 2.967 in assay [2] (compound 6.25e-6 M); 6.867 (2×) and 8.667 in assay [2] (compound 1.25e-5 M); 12.7667 and 12.6667 and 13.5667 in assay [2] (compound 2.5e-5 M). Further, the “Polarization in the absence” value was 29.6667 and 26.2667 and 32.2667 in assay [2] (compound 5e-5 M); 49.4667 and 44.0667 and 55.9667 in assay [2] (compound 0.0001 M).
Turning to `NCCCC1NC(=O)C(Cc2ccc(-c3ccccc3)cc2)NCc2ccccc2Sc2ccccc2CNC1=O` (stereo not drawn) [CY001110], the “Polarization, background subtracted” value in assay [1] (compound 7.8125e-7 M) was -1.033 and -2.233 and -1.933; in assay [1] (compound 1.5625e-6 M), -4.033 and -5.333 and -2.333; in assay [1] (compound 3.125e-6 M) it was -5.033 (2×) and -4.933; in assay [1] (compound 6.25e-6 M), -4.133 and -2.733 and -3.633; in assay [1] (compound 1.25e-5 M), 1.867 and 3.867 and 0.9667; in assay [1] (compound 2.5e-5 M), 13.4667 and 18.8667 and 13.1667. In addition, the “Polarization, background subtracted” value in assay [1] (compound 5e-5 M) was 40.8667 and 54.6667 and 41.6667; in assay [1] (compound 0.0001 M) it was 97.2667 and 108.167 and 99.8667. The “Polarization in the absence” value in assay [2] (compound 7.8125e-7 M) was 0.06667 and 0.2667 and -0.03333; in assay [2] (compound 1.5625e-6 M) it was -0.3333 and -0.6333 (2×); in assay [2] (compound 3.125e-6 M), -0.6333 and 0.1667 and -0.7333; in assay [2] (compound 6.25e-6 M), -1.333 (2×) and -0.9333; in assay [2] (compound 1.25e-5 M), 0.06667 and -0.2333 and 0.1667; in assay [2] (compound 2.5e-5 M), -0.8333 and -1.033 and -0.2333. In addition, the “Polarization in the absence” value in assay [2] (compound 5e-5 M) is -0.3333 and 0.2667 (2×); in assay [2] (compound 0.0001 M), 0.2667 and 1.467 and 3.067.
For the molecule `N=C(N)NCCCC1NC(=O)C(CCC(N)=O)NC(=O)C(CCCNC(=N)N)NC(=O)C2CCCN2Cc2cccc(c2)-c2ccccc2CNC1=O` (stereo not drawn) [CY002028], the “Polarization, background subtracted” value is 0.5667 and 1.267 and 0.8667 in assay [1] (compound 7.8125e-7 M); 0.6667 and -0.1333 and 0.5667 in assay [1] (compound 1.5625e-6 M); 1.867 (2×) and 1.167 in assay [1] (compound 3.125e-6 M); 2.367 and 1.667 and 2.767 in assay [1] (compound 6.25e-6 M); 6.467 and 4.967 and 7.667 in assay [1] (compound 1.25e-5 M); 12.9667 and 10.8667 and 4.867 in assay [1] (compound 2.5e-5 M). Also, the “Polarization, background subtracted” value in assay [1] (compound 5e-5 M) was 26.7667 and 22.8667 and 21.6667; in assay [1] (compound 0.0001 M) it was 66.6667 and 58.4667 and 74.5667. In addition, the “Polarization in the absence” value in assay [2] (compound 7.8125e-7 M) is 1.367 and 0.8667 and 0.4667; in assay [2] (compound 1.5625e-6 M) it was 0.5667 and -0.1333 and 0.4667; in assay [2] (compound 3.125e-6 M), 0.3667 (2×) and 0.6667; in assay [2] (compound 6.25e-6 M) it was 0.2667 and -0.5333 and 0.6667; in assay [2] (compound 1.25e-5 M), -1.933 and 1.467 and 1.267; in assay [2] (compound 2.5e-5 M), 1.367 (2×) and 1.467. For the same molecule, the “Polarization in the absence” value in assay [2] (compound 5e-5 M) was 3.267 and 3.467 and 4.467; in assay [2] (compound 0.0001 M), 7.867 and 8.067 and 8.267.
